Assays:
5-HT transporter = 5-HT transporter (Homo sapiens, UniProt P31645); experiment: Selectivity panel, binding
[1] = system: MK-801 treated Sprague Dawley rats; experiment: Rat MK-801 set shift procedure; assay type: in vivo
Method: Studies followed the methods described in detail in [19] and are briefly summarized here. All rats were singly housed and food-restricted (15g/rat/day) for 7 days prior to initiation of training and for the duration of the study. At the time of testing, the average (± SEM) body weight for individual treatment groups ranged from 168 ± 4 g to 180 ± 6 g. Prior to the study several habituation sessions were conducted to familiarize subjects to the maze and task requirements. The maze consisted of 4 arms (40 cm long x 14 cm wide x 20 cm high) arranged in a ‘+’ configuration and the walls and floor of each arm were distinct and colored either black or white with either a rough or smooth texture (i.e. 1 arm with each of the following combinations: white/smooth, white/rough, black/smooth, black/rough). […] The arm opposite the blocked arm was designated as the ‘start arm’ and only 1 of the 2 remaining arms was baited with food pellets. The set shift procedure comprised 2 test sessions conducted over 2 consecutive days. On the first day (Set 1) rats were required to learn the association of either the color or texture of the maze arms with the location of a food reward. Animals were randomly assigned a correct exemplar within a given dimension as being predictive of reward with 50% of the rats assigned color and 50% assigned texture. Each rat was given a maximum of 120 trials on the maze which was rotated 90 degrees between successive trials so that the adjacent arms now became either the ‘start arm’ or the arm that was blocked. Animals were allowed to visit 1 of the 2 open arms and the trial recorded as correct if the arm with the pre-assigned exemplar was visited and the food reward retrieved. The inter-trial interval was 15 s. Rats were required to achieve a performance criterion of 8 consecutive entries into the rewarded arm at which point testing stopped and the animal was presumed to have learnt the association between the correct exemplar in the assigned dimension and food reward. On day 2 (Set 2) animals were again tested in the maze configured as described for Set 1 with the exception that the dimension predicting food reward was now switched (i.e. animals trained on color for Set 1 were switched to texture and visa versa). Correct performance was again defined as 8 consecutive entries into the rewarded arm with a maximal number of 80 trials allowed. All dosing was administered on day 2 prior to Set 2 testing.

Estrogen receptor alpha = Estrogen receptor alpha (Homo sapiens, UniProt P03372); experiment: Selectivity panel, binding
Estrogen receptor alpha, sequence (P03372 whole entry): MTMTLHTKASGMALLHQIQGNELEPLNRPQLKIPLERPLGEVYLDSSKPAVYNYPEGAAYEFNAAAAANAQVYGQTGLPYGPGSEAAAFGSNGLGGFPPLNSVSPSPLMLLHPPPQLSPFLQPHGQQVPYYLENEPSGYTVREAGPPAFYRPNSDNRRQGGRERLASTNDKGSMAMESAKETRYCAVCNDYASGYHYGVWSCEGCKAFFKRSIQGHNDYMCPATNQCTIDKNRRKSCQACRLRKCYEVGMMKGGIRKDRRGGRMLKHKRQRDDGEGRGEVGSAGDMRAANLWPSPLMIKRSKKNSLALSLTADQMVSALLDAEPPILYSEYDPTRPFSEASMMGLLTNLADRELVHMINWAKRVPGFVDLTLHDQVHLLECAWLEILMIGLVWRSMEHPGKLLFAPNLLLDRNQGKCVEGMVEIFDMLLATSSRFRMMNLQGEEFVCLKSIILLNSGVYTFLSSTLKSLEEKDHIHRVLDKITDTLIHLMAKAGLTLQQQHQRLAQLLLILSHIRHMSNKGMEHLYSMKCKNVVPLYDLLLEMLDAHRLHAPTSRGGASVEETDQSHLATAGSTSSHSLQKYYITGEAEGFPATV

C57Bl/6 mice = experiment: Mouse 24 h novel object recognition; assay type: in vivo
Method: The procedure followed a 3 day protocol. On day 1 (habituation) individual mice were habituated to the testing chamber (a white PVC box 48 cm long x 38 cm wide x 20 cm high with brown linoleum flooring) for 15 min then returned to their home cage. On day 2 (training) individual mice were returned to the testing chamber containing 2 identical objects and allowed to explore. The training session lasted for up to 15 min or until the mouse explored the objects for a total of 60 s. A maximal trial duration of 15 min was used to accommodate mice that are slower to initiate exploration. On day 3 (testing) individual mice were returned to the testing chamber 24 h later containing 1 familiar object encountered in the previous training session and one novel object. The testing session lasted up to 10 min or until the mouse explored the objects for a total of 60 s. The objects used for these studies were made of duplex legos approximately 3 inches high x 1 inch wide; one object was a multicolored rectangle and the second object was a solid color rectangle with a short arm attached. The location of the objects was counterbalanced between animals but was consistent within animals so that only the object itself was novel on the test session. The familiar object used during the test session was the same object used during training and all objects were thoroughly cleaned between sessions and between subjects. Animal behavior was video recorded during both training and testing and the amount of time spent exploring the objects determined using Cleversys software. Object exploration was only scored when the animal’s nose was within 1 cm of the object. […] The vehicle was chosen for sc dosing to ensure that BMS-933043 was dosed as a solution and not a suspension. […] For each subject the % discrimination index (DI) was calculated for both the training and test session as follows: %DI training = (time exploring object 1—time exploring object 2)/(total time exploring object 1 + object 2) X 100; %DI testing = (time exploring novel object—time exploring familiar object)/(total time exploring novel + familiar object) X 100.

Opiate Mu = Opiate Mu (Homo sapiens, UniProt P35372); experiment: Selectivity panel, binding
Muscarinic M5 = Muscarinic M5 (Homo sapiens, UniProt P08912); experiment: Selectivity panel, binding; details: read-out: % inhibition @ 10 µM
Muscarinic M5, sequence (P08912 whole entry): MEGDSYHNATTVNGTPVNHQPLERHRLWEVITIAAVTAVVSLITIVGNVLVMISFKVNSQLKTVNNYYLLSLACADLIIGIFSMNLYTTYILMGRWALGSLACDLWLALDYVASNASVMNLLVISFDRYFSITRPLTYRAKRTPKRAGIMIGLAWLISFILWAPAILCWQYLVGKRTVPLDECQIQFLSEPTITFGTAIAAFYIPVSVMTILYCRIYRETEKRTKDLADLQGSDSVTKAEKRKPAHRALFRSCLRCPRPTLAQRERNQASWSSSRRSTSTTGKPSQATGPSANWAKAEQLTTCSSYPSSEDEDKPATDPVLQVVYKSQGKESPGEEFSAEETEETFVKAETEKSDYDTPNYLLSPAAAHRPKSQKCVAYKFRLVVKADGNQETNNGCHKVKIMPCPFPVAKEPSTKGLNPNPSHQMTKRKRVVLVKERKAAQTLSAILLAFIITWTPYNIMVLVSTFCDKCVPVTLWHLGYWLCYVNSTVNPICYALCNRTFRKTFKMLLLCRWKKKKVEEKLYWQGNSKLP

Muscarinic M3 = Muscarinic M3 (Homo sapiens, UniProt P20309); experiment: Selectivity panel, binding; details: read-out: % inhibition @ 10 µM
Muscarinic M3, sequence (P20309 whole entry): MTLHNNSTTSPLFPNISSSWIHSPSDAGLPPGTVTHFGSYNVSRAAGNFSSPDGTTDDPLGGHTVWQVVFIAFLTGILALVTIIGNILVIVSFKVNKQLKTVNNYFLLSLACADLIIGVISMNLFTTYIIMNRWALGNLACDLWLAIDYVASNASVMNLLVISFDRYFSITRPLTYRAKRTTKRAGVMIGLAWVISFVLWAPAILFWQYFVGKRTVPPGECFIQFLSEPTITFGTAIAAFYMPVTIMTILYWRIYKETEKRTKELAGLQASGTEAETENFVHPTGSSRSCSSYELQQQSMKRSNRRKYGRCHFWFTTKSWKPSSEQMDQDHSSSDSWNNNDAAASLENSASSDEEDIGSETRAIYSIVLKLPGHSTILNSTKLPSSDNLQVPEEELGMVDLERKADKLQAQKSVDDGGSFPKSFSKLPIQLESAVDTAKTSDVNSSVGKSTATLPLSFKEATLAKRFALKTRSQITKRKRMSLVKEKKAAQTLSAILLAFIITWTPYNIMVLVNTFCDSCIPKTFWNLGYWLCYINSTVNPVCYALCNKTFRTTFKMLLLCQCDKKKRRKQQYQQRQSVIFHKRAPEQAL

Adrenergic α1B = Adrenergic α1B (Homo sapiens, UniProt P35368); experiment: Selectivity panel, binding
Adrenergic α1B, sequence (P35368 whole entry): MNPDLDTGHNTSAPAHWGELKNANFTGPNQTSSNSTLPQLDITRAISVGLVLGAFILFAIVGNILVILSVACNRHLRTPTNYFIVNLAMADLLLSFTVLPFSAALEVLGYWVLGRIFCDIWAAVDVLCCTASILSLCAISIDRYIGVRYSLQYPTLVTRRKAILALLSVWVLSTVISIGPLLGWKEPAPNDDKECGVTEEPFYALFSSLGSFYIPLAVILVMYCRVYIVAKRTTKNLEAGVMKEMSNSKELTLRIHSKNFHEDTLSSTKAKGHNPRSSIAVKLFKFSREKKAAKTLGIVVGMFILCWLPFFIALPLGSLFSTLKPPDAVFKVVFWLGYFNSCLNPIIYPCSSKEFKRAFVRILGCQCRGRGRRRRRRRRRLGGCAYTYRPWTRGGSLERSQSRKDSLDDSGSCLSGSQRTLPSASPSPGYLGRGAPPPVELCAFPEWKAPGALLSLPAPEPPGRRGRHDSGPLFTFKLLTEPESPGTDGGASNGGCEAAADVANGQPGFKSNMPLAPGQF

[2] = system: neonatal PCP treated rats; experiment: Rat neonatal PCP mismatch negativity
Description: Adult male rats treated neonatally with PCP were implanted with epidural screw electrodes at the following co-ordinates under isoflurane anesthesia: 6 mm rostral and 1 mm off midline to the left from bregma; 5.5 mm rostral to interaural line and 1 mm off to the right from midline. Following recovery EEG recordings were collected from conscious rats housed in individual sound attenuated chambers (Med Associates, St Albans, VT) with the recording electrodes tethered through a low torque commutator system (Plastics One Inc, Roannoke, VA) to a differential amplifier (gain x1000; Warner Instruments, Hamden, CT). […] Baseline EEG was first recorded using Spike v5.19 or later software (CED, Cambridge, UK) to ensure electrical connectivity and an acceptable EEG signal. A simultaneous video was used to assess the general state of the animals during the recordings. […] Tones (70 dB) were delivered through a speaker mounted in the top center of the housing chamber and presented at 450 ms intervals. In each experimental session 700 standard and 100 deviant tones were presented. Data were analyzed using Signal v4.09 software (CED, Cambridge, UK). Artifact free trials were visually identified, corrected for baseline shift using the first 100 ms of the pre-stimulus baseline, 30 Hz low-pass filtered using a second order Butterworth digital filter and averaged to give evoked potential for each subject.

Androgen receptor = Androgen receptor (Rattus norvegicus, UniProt P15207); experiment: Selectivity panel, binding
Muscarinic M4 = Muscarinic M4 (Homo sapiens, UniProt P08173); experiment: Selectivity panel, binding; details: read-out: % inhibition @ 10 µM
Muscarinic M4, sequence (P08173 whole entry): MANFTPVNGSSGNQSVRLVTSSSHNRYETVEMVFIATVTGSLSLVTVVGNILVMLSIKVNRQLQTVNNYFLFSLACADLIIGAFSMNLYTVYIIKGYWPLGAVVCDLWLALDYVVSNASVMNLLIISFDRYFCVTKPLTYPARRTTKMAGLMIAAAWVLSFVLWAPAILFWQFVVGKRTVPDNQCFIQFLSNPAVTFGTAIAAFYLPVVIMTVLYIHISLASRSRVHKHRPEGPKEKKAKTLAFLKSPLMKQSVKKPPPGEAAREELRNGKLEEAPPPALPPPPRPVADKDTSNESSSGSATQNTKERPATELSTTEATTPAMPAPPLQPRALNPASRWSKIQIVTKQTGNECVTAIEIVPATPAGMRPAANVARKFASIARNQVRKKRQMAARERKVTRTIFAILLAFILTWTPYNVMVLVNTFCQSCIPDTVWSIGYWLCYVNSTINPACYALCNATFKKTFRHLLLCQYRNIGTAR

5-HT2A = 5-HT2A (Homo sapiens, UniProt P28223); experiment: Selectivity panel, functional; assay type: cell-based
5-HT2A, sequence (P28223 whole entry): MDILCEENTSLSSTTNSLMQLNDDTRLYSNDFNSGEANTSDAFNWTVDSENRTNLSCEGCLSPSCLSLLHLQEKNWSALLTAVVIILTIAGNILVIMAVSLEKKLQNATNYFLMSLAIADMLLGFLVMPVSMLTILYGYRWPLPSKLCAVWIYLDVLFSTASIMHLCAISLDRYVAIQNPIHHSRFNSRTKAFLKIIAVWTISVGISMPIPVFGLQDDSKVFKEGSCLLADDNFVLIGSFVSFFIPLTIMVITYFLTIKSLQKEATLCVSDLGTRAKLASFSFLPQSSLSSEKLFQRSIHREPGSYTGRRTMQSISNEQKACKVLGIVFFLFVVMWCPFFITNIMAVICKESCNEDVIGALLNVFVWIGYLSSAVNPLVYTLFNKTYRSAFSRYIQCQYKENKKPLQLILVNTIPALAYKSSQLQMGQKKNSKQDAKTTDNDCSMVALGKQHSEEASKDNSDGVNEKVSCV

Adenosine A2a = Adenosine A2a (Homo sapiens, UniProt P29274); experiment: Selectivity panel, binding
Adenosine A2a, sequence (P29274 whole entry): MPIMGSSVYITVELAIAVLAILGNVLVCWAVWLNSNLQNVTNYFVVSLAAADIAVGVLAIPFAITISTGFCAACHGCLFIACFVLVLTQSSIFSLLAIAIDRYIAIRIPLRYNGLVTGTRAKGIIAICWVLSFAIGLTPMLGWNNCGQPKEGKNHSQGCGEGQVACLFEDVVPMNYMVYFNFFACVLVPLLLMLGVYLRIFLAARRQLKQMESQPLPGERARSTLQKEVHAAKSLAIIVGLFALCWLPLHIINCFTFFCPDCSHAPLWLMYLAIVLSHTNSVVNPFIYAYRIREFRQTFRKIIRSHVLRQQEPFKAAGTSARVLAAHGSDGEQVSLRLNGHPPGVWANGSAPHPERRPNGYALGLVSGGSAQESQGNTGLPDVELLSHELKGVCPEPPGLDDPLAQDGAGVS

Adrenergic α2C = Adrenergic α2C (Homo sapiens, UniProt P18825); experiment: Selectivity panel, binding
Adrenergic α2C, sequence (P18825 whole entry): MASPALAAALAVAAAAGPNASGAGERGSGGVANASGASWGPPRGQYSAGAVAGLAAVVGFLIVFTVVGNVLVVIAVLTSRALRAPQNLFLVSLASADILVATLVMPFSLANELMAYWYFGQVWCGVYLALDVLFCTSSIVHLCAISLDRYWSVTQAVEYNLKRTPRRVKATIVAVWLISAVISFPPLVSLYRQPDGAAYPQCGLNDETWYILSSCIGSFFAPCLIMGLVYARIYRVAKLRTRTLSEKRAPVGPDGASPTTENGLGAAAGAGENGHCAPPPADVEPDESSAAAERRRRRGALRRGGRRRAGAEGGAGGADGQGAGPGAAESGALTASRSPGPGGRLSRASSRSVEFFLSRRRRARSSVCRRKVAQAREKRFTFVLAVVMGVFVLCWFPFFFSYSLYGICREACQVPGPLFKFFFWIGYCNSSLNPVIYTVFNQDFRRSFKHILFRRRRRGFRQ

5-HT transporter, sequence (P31645 whole entry): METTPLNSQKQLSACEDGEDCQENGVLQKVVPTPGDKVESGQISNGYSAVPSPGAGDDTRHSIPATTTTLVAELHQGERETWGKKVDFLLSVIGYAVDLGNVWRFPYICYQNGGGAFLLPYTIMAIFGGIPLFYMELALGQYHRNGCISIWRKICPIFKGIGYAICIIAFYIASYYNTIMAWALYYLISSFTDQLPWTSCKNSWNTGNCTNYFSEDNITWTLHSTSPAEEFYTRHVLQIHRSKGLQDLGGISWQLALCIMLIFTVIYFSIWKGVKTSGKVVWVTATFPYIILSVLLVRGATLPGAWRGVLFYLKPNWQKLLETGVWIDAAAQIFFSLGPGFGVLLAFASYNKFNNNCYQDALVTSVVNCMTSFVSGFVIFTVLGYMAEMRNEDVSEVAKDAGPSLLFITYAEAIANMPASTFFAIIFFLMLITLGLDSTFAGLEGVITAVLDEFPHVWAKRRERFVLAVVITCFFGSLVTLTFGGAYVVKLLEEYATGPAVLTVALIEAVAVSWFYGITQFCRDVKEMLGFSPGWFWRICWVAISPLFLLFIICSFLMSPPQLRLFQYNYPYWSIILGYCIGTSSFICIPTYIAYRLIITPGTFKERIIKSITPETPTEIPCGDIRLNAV

c1cn(-c2cc(NC3=NC[C@@]4(CN5CCC4CC5)O3)ncn2)cn1 [BMS-933043, (2R)-N-(6-(1H-imidazol-1-yl)-4-pyrimidinyl)-4'H-spiro[4-azabicyclo[2.2.2]octane-2,5'-[1,3]oxazol]-2'-amine]
IC50 (5-HT transporter): > 30 µM | Number of trials to criteria Mean ± SEM ([1]; 0.3 mg/kg po / MK-801, 0.3-3 mg/kg study): 66.4 ± 3.2 | Number of trials to criteria Mean ± SEM ([1]; 1 mg/kg po / MK-801, 0.3-3 mg/kg study): 54.4 ± 4.8 | Number of trials to criteria Mean ± SEM ([1]; 3 mg/kg po / MK-801, 0.3-3 mg/kg study): 50.3 ± 4.3 | Number of trials to criteria Mean ± SEM ([1]; 3 mg/kg po / MK-801, 3-30 mg/kg study): 48.3 ± 5.8 | Number of trials to criteria Mean ± SEM ([1]; 10 mg/kg po / MK-801, 3-30 mg/kg study): 54.0 ± 3.2 | Number of trials to criteria Mean ± SEM ([1]; 30 mg/kg po / MK-801, 3-30 mg/kg study): 68.0 ± 4.7 | perseverative errors in MK-801-treated animals ([1]; po): decreased perseverative errors | IC50 (Estrogen receptor alpha): > 150 µM | total object exploration time in training or testing session (C57Bl/6 mice; mice): does not alter total object exploration time | effective dose range, 24 h novel object recognition (C57Bl/6 mice; sc, 30 min prior to training): 0.1 to 10 mg/kg | IC50 (Opiate Mu): > 30 µM | inhibition at 10 µM (Muscarinic M5): 8% | inhibition at 10 µM (Muscarinic M3): 18% | IC50 (Adrenergic α1B): > 30 µM | deviance detection (MMN) ([2]; 0.3 mg/kg sc): just failing to achieve statistical significance | AUC (150-200 ms) of difference wave, Mean ([2]; Study 1, 0.01 mg/kg sc): -6.608e-005 | AUC (150-200 ms) of difference wave, Mean ([2]; Study 1, 0.1 mg/kg sc): -0.0001188 | AUC (150-200 ms) of difference wave, Mean ([2]; Study 2, 0.03 mg/kg sc): -0.0002362 | AUC (150-200 ms) of difference wave, Mean ([2]; Study 2, 0.1 mg/kg sc (so in the source)): -0.0001715 | AUC (150-200 ms) of difference wave, Mean ([2]; Study 3, 1 mg/kg sc): -0.000159 | AUC (150-200 ms) of difference wave, Mean ([2]; Study 3, 3 mg/kg sc): -0.0001341 | deviance detection (MMN) ([2]; doses of 0.03, 0.1, 1 and 3 mg/kg sc): significant deviance detection from a hypothetical zero | Active dose range, Neonatal PCP MMN ([2]; sc): 0.03–3.0 (sc) mg/kg | IC50 (Androgen receptor): > 150 µM | inhibition at 10 µM (Muscarinic M4): 10% | EC50 (5-HT2A): > 10 µM | IC50 (Adenosine A2a): > 30 µM | IC50 (Adrenergic α2C): > 30 µM
